Results published in patent US6294554A (priority 2000, dated 2001).

tested on: acetylcholine (ACh); experiment: In vivo microdialysis, acetylcholine (ACh) levels in striatum; set-up: species or system male Sprague-Dawley Rats; conditions: 10 mg/kg PO, rat striatum ACh
Protocol: Microdialysis Methodology
Surgery: For these studies, male Sprague-Dawley Rats (250-350 g) were anesthetized with sodium pentobarbital (54 mg/kg, ip) and placed on a Kopf sterotaxic apparatus. The skull was exposed and drilled through to the dura at a point 0.2 mm anterior and 3.0 mm lateral to the bregma. At these coordinates, a guide cannula was positioned at the outer edge of the dura through the drilled opening, lowered perpendicularly to a depth of 2.5 mm, and permanently secured with dental cement to bone screws. Following the surgery, rats were given ampicillin (40 mg/kg, ip) and individually housed in modified cages. A recovery period of approximately 3 to 7 days was allowed before the microdialysis procedure was undertaken.
Microdialysis: All of the equipment and instrumentation used to conduct in vivo microdialysis was obtained from Bioanalytical Systems, Inc. (BAS). The microdialysis procedure involved the insertion through the guide cannula of a thin, needle-like perfusable probe (CMA/12, 3 mm×0.5 mm) to a depth of 3 mm in striatum beyond the end of the guide. The probe was connected beforehand with tubing to a microinjection pump (CMA/100). Rats were collared, tethered, and, following probe insertion, were placed in a large, clear, plexiglass bowl with litter material and access to food and water. The probe was perfused at 2, μl/min with Ringer's buffer (NaCl 147 mM; KCl 3.0 mM; CaCl2 1.2 mM; MgCl2 1.0 mM) containing 5.5 mM glucose, 0.2 mM L-ascorbate, and 1 μM neostigmine bromide at pH 7.4). To achieve stable baseline readings, microdialysis was allowed to proceed for 90 minutes prior to the collection of fractions. Fractions (20 μl) were obtained at 10 minute intervals over a 3 hour period using a refrigerated collector (CMA/1 70 or 200). Four to five baseline fractions were collected, following which the drug or combination of drugs to be tested was administered to the animal. Upon completion of the collection, each rat was autopsied to determine accuracy of probe placement.
Acetylcholine (ACh) analysis: The concentration of ACh in collected samples of microdialysate was determined using HPLC/electrochemical detection. Samples were auto-injected (Waters 712 Refrigerated Sample Processor) onto a polymeric analytical HPLC column (BAS, MF-6150) and eluted with 50 mM Na2 HPO4, pH 8.5. To prevent bacterial growth, Kathon CG reagent (0.005%) (BAS) was included in the mobile phase. Eluent from the analytical column, containing separated ACh and choline, was then immediately passed through an immobilized enzyme reactor cartridge (BAS, MF-6151) coupled to the column outlet. […] Integration and quantification of peaks were accomplished using "Maxima" chromatography software (Waters Corporation). […]

| SMILES | Microdialysis Maximum % of baseline [%] |
| --- | --- |
| Nc1ccccc1C(=O)N1CCC(N2CCC(Cc3ccc(S(=O)(=O)c4cccc(Cl)c4)cc3)CC2)CC1 [Example 7A] | 150 |
| COc1ccc(S(=O)(=O)c2ccc(C3(C4CCN(C5CCN(C(=O)c6cccc(C)c6N)CC5)CC4)OCCO3)cc2)cc1 [Example 2] | 194 |
| Nc1cc(F)ccc1C(=O)N1CCC(N2CCC(C3(c4ccc(S(=O)(=O)c5cccc(Cl)c5)cc4)OCCO3)CC2)CC1 [Example 3E] | 188 |
| COc1ccc(S(=O)(=O)c2ccc(C3(C4CCN(C5CCN(C(=O)c6cccc(F)c6N)CC5)CC4)OCCO3)cc2)cc1 [Example 2F] | 186 |
